Results: PubChem BioAssay (NCI)
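96-well plates; 48 h exposure; 5 concentrations. Endpoints by linear interpolation between flanking doses. Not reached: highest tested concentration assigned. At the GI50, growth is halved. Definition used: TGI = concentration required for complete inhibition of growth.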

Experiments:
Assay in all cases: growth of human tumour cells (NCI), 48 h
[1] = test system: OVCAR-4 ovarian
[2] = test system: 786-0 renal
[3] = test system: SNB-75 CNS
[4] = test system: TK-10 renal
[5] = test system: MDA-MB-231 breast
[6] = test system: SW-620 colon
[7] = test system: HS 578T breast
[8] = test system: OVCAR-3 ovarian
[9] = test system: DU-145 prostate
[10] = test system: HCT-15 colon
[11] = test system: SF-268 CNS
[12] = test system: SF-295 CNS
[13] = test system: OVCAR-8 ovarian
[14] = test system: HCC-2998 colon
[15] = test system: BT-549 breast
[16] = test system: NCI-H460 lung
[17] = test system: IGROV1 ovarian
[18] = test system: PC-3 prostate
[19] = test system: MDA-MB-435
[20] = test system: HOP-62 NSCLC
[21] = test system: HT29 colon
[22] = test system: CCRF-CEM leukemia
[23] = test system: KM12 colon
[24] = test system: NCI-H522 lung
[25] = test system: MOLT-4 leukemia
[26] = test system: NCI-H23 lung
[27] = test system: T-47D breast
[28] = test system: LOX IMVI melanoma
[29] = test system: UO-31 renal
[30] = test system: NCI/ADR-RES ovarian
[31] = test system: MCF7 breast
[32] = test system: SR leukemia
[33] = test system: OVCAR-5 ovarian
[34] = test system: UACC-62 melanoma
[35] = test system: RXF 393 renal
[36] = test system: SK-MEL-28 melanoma
[37] = test system: ACHN renal
[38] = test system: U251 CNS
[39] = test system: SK-OV-3 ovarian
[40] = test system: SK-MEL-2 melanoma
[41] = test system: A549 NSCLC
[42] = test system: HCT-116 colon
[43] = test system: CAKI-1 renal
[44] = test system: HL-60(TB) leukemia
[45] = test system: MALME-3M melanoma
[46] = test system: SNB-19 CNS
[47] = test system: SK-MEL-5 melanoma
[48] = test system: RPMI-8226 leukemia
[49] = test system: K-562 leukemia
[50] = test system: M14 melanoma
[51] = test system: A498 renal
[52] = test system: SF-539 CNS
[53] = test system: HOP-92 NSCLC
[54] = test system: SN12C renal
[55] = test system: NCI-H226 lung
[56] = test system: COLO 205 colon

FC(F)(F)c1cc(NC2=NCCN=C(Nc3cc(C(F)(F)F)cc(C(F)(F)F)c3)SS2)cc(C(F)(F)F)c1
GI50 [1]: 3.65 µM | TGI [1]: 17 µM | GI50 [2]: 5.26 µM | TGI [2]: 17.7 µM | GI50 [3]: 9.35 µM | TGI [3]: 45.6 µM | GI50 [4]: 5.25 µM | TGI [4]: 19.8 µM | GI50 [5]: 3.59 µM | TGI [5]: 15 µM | GI50 [6]: 3.71 µM | TGI [6]: 14.8 µM | GI50 [7]: 5.08 µM | TGI [7]: 27.6 µM | GI50 [8]: 2.94 µM | TGI [8]: 8.64 µM | GI50 [9]: 6.24 µM | TGI [9]: 18.9 µM | GI50 [10]: 3.33 µM | TGI [10]: 14.2 µM | GI50 [11]: 5.68 µM | TGI [11]: 19.8 µM | GI50 [12]: 3.08 µM | TGI [12]: 12.2 µM | GI50 [13]: 3.7 µM | TGI [13]: 16.9 µM | GI50 [14]: 6.15 µM | TGI [14]: 19.3 µM | GI50 [15]: 6.2 µM | TGI [15]: 19.1 µM | GI50 [16]: 3.7 µM | TGI [16]: 14.2 µM | GI50 [17]: 6.04 µM | TGI [17]: 26.3 µM | GI50 [18]: 3 µM | TGI [18]: 12.1 µM | GI50 [19]: 3.83 µM | TGI [19]: 14.1 µM | GI50 [20]: 13.1 µM | TGI [20]: 31.3 µM | GI50 [21]: 3.85 µM | TGI [21]: 14.1 µM | GI50 [22]: 4.28 µM | TGI [22]: 27 µM | GI50 [23]: 3.72 µM | TGI [23]: 12.3 µM | GI50 [24]: 2.84 µM | TGI [24]: 10.6 µM | GI50 [25]: 4.71 µM | TGI [25]: 28 µM | GI50 [26]: 4.75 µM | TGI [26]: 17.4 µM | GI50 [27]: 4.22 µM | TGI [27]: 23.7 µM | GI50 [28]: 4.59 µM | TGI [28]: 16.9 µM | GI50 [29]: 2.66 µM | TGI [29]: 11.9 µM | GI50 [30]: 5.23 µM | TGI [30]: 21.5 µM | GI50 [31]: 2.9 µM | TGI [31]: 12.6 µM | GI50 [32]: 3.76 µM | TGI [32]: 20.4 µM | GI50 [33]: 5.94 µM | TGI [33]: 19.7 µM | GI50 [34]: 3.55 µM | TGI [34]: 14.5 µM | GI50 [35]: 2.66 µM | TGI [35]: 11.2 µM | GI50 [36]: 6.07 µM | TGI [36]: 19.4 µM | GI50 [37]: 2.6 µM | TGI [37]: 8.93 µM | GI50 [38]: 2.82 µM | TGI [38]: 10.7 µM | GI50 [39]: 8.63 µM | TGI [39]: 54.3 µM | GI50 [40]: 4.49 µM | TGI [40]: 14.3 µM | GI50 [41]: 3.68 µM | TGI [41]: 17.4 µM | GI50 [42]: 3.73 µM | TGI [42]: 12.5 µM | GI50 [43]: 3.12 µM | TGI [43]: 13.1 µM | GI50 [44]: 3.27 µM | TGI [44]: 15.8 µM | GI50 [45]: 4.12 µM | TGI [45]: 15.5 µM | GI50 [46]: 4.08 µM | TGI [46]: 15.4 µM | GI50 [47]: 3.2 µM | TGI [47]: 11.9 µM | GI50 [48]: 2.58 µM | TGI [48]: 8.8 µM | GI50 [49]: 3.58 µM | TGI [49]: 17.6 µM | GI50 [50]: 6.87 µM | TGI [50]: 26.6 µM | GI50 [51]: 2.24 µM | TGI [51]: 9.68 µM | GI50 [52]: 5.21 µM | TGI [52]: 18.3 µM | GI50 [53]: 1.52 µM | TGI [53]: 5.01 µM | GI50 [54]: 3.29 µM | TGI [54]: 13.1 µM | GI50 [55]: 3.07 µM | TGI [55]: 16.2 µM | GI50 [56]: 3.47 µM | TGI [56]: 13.2 µM
